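Five compound concentrations were applied to cells in 96-well plates for 48 hours; endpoints were derived by simple linear interpolation of the resulting dose-response curve. GI50 is the concentration that inhibits growth by half.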 Active and inactive are the calls of the source. No stated cut-off is given here; in the data, active = GI50 up to about 1.1 µM and inactive = higher.
Columns and labels:
Assay in all cases: NCI tumour cell line growth inhibition, 48 h
786-0 = tested on: 786-0
A498 = tested on: A498
A549 = tested on: A549
ACHN = tested on: ACHN
CAKI-1 = tested on: CAKI-1
CCRF-CEM = tested on: CCRF-CEM
COLO 205 = tested on: COLO 205
DLD-1 = tested on: DLD-1
DMS-114 = tested on: DMS-114
DMS-273 = tested on: DMS-273
EKVX = tested on: EKVX
HCC 2998 = tested on: HCC 2998
HCT-116 = tested on: HCT-116
HCT-15 = tested on: HCT-15
HL-60 = tested on: HL-60
HOP-18 = tested on: HOP-18
HOP-62 = tested on: HOP-62
HOP-92 = tested on: HOP-92
HT-29 = tested on: HT-29
IGROV-1 = tested on: IGROV-1
K562 = tested on: K562
KM-20L2 = tested on: KM-20L2
KM12 = tested on: KM12
LOX IMVI = tested on: LOX IMVI
LXFL 529 = tested on: LXFL 529
M14 = tested on: M14
M19-MEL = tested on: M19-MEL
MOLT-4 = tested on: MOLT-4
Malme-3M = tested on: Malme-3M
NCI-H226 = tested on: NCI-H226
NCI-H23 = tested on: NCI-H23
NCI-H460 = tested on: NCI-H460
NCI-H522 = tested on: NCI-H522
OVCAR-3 = tested on: OVCAR-3
OVCAR-4 = tested on: OVCAR-4
OVCAR-5 = tested on: OVCAR-5
OVCAR-8 = tested on: OVCAR-8
RPMI-8226 = tested on: RPMI-8226
RXF 393 = tested on: RXF 393
SF-268 = tested on: SF-268
SF-295 = tested on: SF-295
SF-539 = tested on: SF-539
SK-MEL-2 = tested on: SK-MEL-2
SK-MEL-5 = tested on: SK-MEL-5
SK-OV-3 = tested on: SK-OV-3
SN12C = tested on: SN12C
SNB-19 = tested on: SNB-19
SNB-75 = tested on: SNB-75
SNB-78 = tested on: SNB-78
SR = tested on: SR
SW-620 = tested on: SW-620
TK-10 = tested on: TK-10
U-251 = tested on: U-251
UACC-257 = tested on: UACC-257
UACC-62 = tested on: UACC-62
UO-31 = tested on: UO-31
XF498 = tested on: XF498
RXF 631 = tested on: RXF 631
SK-MEL-28 = tested on: SK-MEL-28

Compound: COC1=C(C(=O)OC(C)(C)C)[C@]2(C)C(C(=O)OC(C)(C)C)C(OC)=C(C(=O)OC(C)(C)C)[C@]2(C)C1C(=O)OC(C)(C)C (stereo partly drawn)
- GI50 (786-0): > 100 µM (inactive)
- GI50 (A498): > 100 µM (inactive)
- GI50 (A549): > 100 µM (inactive)
- GI50 (ACHN): 69.3 µM (inactive)
- GI50 (CAKI-1): 71.3 µM (inactive)
- GI50 (CCRF-CEM): 73.8 µM (inactive)
- GI50 (COLO 205): 60.4 µM (inactive)
- GI50 (DLD-1): 83.9 µM (inactive)
- GI50 (DMS-114): 53.1 µM (inactive)
- GI50 (DMS-273): 97.7 µM (inactive)
- GI50 (EKVX): > 100 µM (inactive)
- GI50 (HCC 2998): > 100 µM (inactive)
- GI50 (HCT-116): 96.4 µM (inactive)
- GI50 (HCT-15): 53 µM
- GI50 (HL-60): 24.9 µM (inactive)
- GI50 (HOP-18): > 100 µM (inactive)
- GI50 (HOP-62): > 100 µM (inactive)
- GI50 (HOP-92): 32.9 µM (inactive)
- GI50 (HT-29): 63.2 µM (inactive)
- GI50 (IGROV-1): > 100 µM (inactive)
- GI50 (K562): 37.5 µM (inactive)
- GI50 (KM-20L2): > 100 µM (inactive)
- GI50 (KM12): 79.1 µM (inactive)
- GI50 (LOX IMVI): > 100 µM (inactive)
- GI50 (LXFL 529): > 100 µM (inactive)
- GI50 (M14): 46.9 µM (inactive)
- GI50 (M19-MEL): > 100 µM (inactive)
- GI50 (MOLT-4): 33.9 µM (inactive)
- GI50 (Malme-3M): > 100 µM (inactive)
- GI50 (NCI-H226): > 100 µM (inactive)
- GI50 (NCI-H23): > 100 µM (inactive)
- GI50 (NCI-H460): 78.2 µM (inactive)
- GI50 (NCI-H522): 43.8 µM (inactive)
- GI50 (OVCAR-3): 29.3 µM (inactive)
- GI50 (OVCAR-4): 97.7 µM (inactive)
- GI50 (OVCAR-5): > 100 µM (inactive)
- GI50 (OVCAR-8): > 100 µM (inactive)
- GI50 (RPMI-8226): 31.3 µM (inactive)
- GI50 (RXF 393): > 100 µM (inactive)
- GI50 (SF-268): > 100 µM (inactive)
- GI50 (SF-295): 83.4 µM (inactive)
- GI50 (SF-539): > 100 µM (inactive)
- GI50 (SK-MEL-2): > 100 µM (inactive)
- GI50 (SK-MEL-5): 35.1 µM (inactive)
- GI50 (SK-OV-3): > 100 µM (inactive)
- GI50 (SN12C): > 100 µM (inactive)
- GI50 (SNB-19): > 100 µM (inactive)
- GI50 (SNB-75): > 100 µM (inactive)
- GI50 (SNB-78): > 100 µM (inactive)
- GI50 (SR): 33.6 µM (inactive)
- GI50 (SW-620): > 100 µM (inactive)
- GI50 (TK-10): > 100 µM (inactive)
- GI50 (U-251): > 100 µM (inactive)
- GI50 (UACC-257): 28.2 µM (inactive)
- GI50 (UACC-62): > 100 µM (inactive)
- GI50 (UO-31): 85.3 µM (inactive)
- GI50 (XF498): > 100 µM (inactive)

Compound: COc1cc([C@@H]2c3cc4c(cc3[C@@H](NCc3cccc(C#N)c3)C3COC(=O)[C@@H]32)OCO4)cc(OC)c1O (stereo partly drawn)
- GI50 (786-0): 1.02 µM (active)
- GI50 (A498): 1.43 µM (inactive)
- GI50 (A549): 0.0815 µM (active)
- GI50 (ACHN): 0.305 µM (active)
- GI50 (CAKI-1): 1 µM (active)
- GI50 (CCRF-CEM): 0.224 µM (active)
- GI50 (COLO 205): 2.99 µM (inactive)
- GI50 (DLD-1): 1.7 µM (inactive)
- GI50 (DMS-114): 1.87 µM (inactive)
- GI50 (DMS-273): 0.349 µM (active)
- GI50 (EKVX): 2.39 µM (inactive)
- GI50 (HCC 2998): 1.48 µM (inactive)
- GI50 (HCT-116): 2.12 µM (inactive)
- GI50 (HCT-15): 1.17 µM
- GI50 (HL-60): 0.149 µM (active)
- GI50 (HOP-18): > 100 µM (inactive)
- GI50 (HOP-62): 0.439 µM (active)
- GI50 (HOP-92): 1.32 µM (inactive)
- GI50 (HT-29): 1.48 µM (inactive)
- GI50 (IGROV-1): 1.03 µM (active)
- GI50 (K562): 1.83 µM (inactive)
- GI50 (KM-20L2): 1.58 µM (inactive)
- GI50 (KM12): 1.62 µM (inactive)
- GI50 (LOX IMVI): 1.27 µM (inactive)
- GI50 (LXFL 529): 5.9 µM (inactive)
- GI50 (M14): 1.64 µM (inactive)
- GI50 (M19-MEL): 5.7 µM (inactive)
- GI50 (MOLT-4): 0.0386 µM (active)
- GI50 (Malme-3M): 2.18 µM (inactive)
- GI50 (NCI-H226): 0.225 µM (active)
- GI50 (NCI-H23): 0.428 µM (active)
- GI50 (NCI-H460): 0.0356 µM (active)
- GI50 (NCI-H522): 1.46 µM (inactive)
- GI50 (OVCAR-3): 2.57 µM (inactive)
- GI50 (OVCAR-4): 68.7 µM (inactive)
- GI50 (OVCAR-5): 2.84 µM (inactive)
- GI50 (OVCAR-8): 1.43 µM (inactive)
- GI50 (RPMI-8226): 1.2 µM (inactive)
- GI50 (RXF 393): 2.34 µM (inactive)
- GI50 (RXF 631): 1.29 µM (inactive)
- GI50 (SF-268): 2.22 µM (inactive)
- GI50 (SF-295): 0.925 µM (active)
- GI50 (SF-539): 0.326 µM (active)
- GI50 (SK-MEL-28): 3.32 µM (inactive)
- GI50 (SK-MEL-2): 3.77 µM (inactive)
- GI50 (SK-MEL-5): 2.02 µM (inactive)
- GI50 (SK-OV-3): 1.53 µM (inactive)
- GI50 (SN12C): 0.448 µM (active)
- GI50 (SNB-19): 1.1 µM (active)
- GI50 (SNB-75): 1.06 µM (active)
- GI50 (SW-620): 0.646 µM (active)
- GI50 (TK-10): 2.39 µM (inactive)
- GI50 (U-251): 0.303 µM (active)
- GI50 (UACC-257): 6.64 µM (inactive)
- GI50 (UACC-62): 0.524 µM (active)
- GI50 (UO-31): 2.22 µM (inactive)
